# From PubChem BioAssay (NCI)
#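 Values below derive from 48-hour exposures of cells grown in 96-well plates, with endpoints linearly interpolated between the two concentrations bracketing the appropriate inhibition level. TGI: concentration producing complete growth inhibition.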
# Tests used:
# Assay in all cases: NCI-60 cell line screen, 48 h
# SK-MEL-28 melanoma = system: SK-MEL-28 melanoma
# HCC-2998 colon = system: HCC-2998 colon
# DU-145 prostate = system: DU-145 prostate
# EKVX NSCLC = system: EKVX NSCLC
# K-562 leukemia = system: K-562 leukemia
# SF-268 CNS = system: SF-268 CNS
# SNB-75 CNS = system: SNB-75 CNS
# OVCAR-3 ovarian = system: OVCAR-3 ovarian
# NCI-H23 lung = system: NCI-H23 lung
# BT-549 breast = system: BT-549 breast
# SW-620 colon = system: SW-620 colon
# SR leukemia = system: SR leukemia
# UO-31 renal = system: UO-31 renal
# U251 CNS = system: U251 CNS
Compound,TGI (SK-MEL-28 melanoma) [µM],TGI (HCC-2998 colon) [µM],TGI (DU-145 prostate) [µM],TGI (EKVX NSCLC) [µM],TGI (K-562 leukemia) [µM],TGI (SF-268 CNS) [µM],TGI (SNB-75 CNS) [µM],TGI (OVCAR-3 ovarian) [µM],TGI (NCI-H23 lung) [µM],TGI (BT-549 breast) [µM],TGI (SW-620 colon) [µM],TGI (SR leukemia) [µM],TGI (UO-31 renal) [µM],TGI (U251 CNS) [µM]
CC(C)(C)CN1[C@@H]2CCCC[C@H]2N(CC(C)(C)C)P1(=O)Cc1ccccc1,31.7,21.2,30,27.4,28.2,28.7,24.1,23.5,26.2,31.2,30.7,29.7,26.1,26.5
CCCSc1cc(Cl)c(C)cc1S(=O)(=O)n1cc[nH]c1=O,> 100,> 100,> 100,> 100,> 100,> 100,> 100,> 100,> 100,> 100,> 100,> 100,> 100,> 100
O=S(=O)(O)c1cc(S(=O)(=O)O)c2c(N=Nc3cccc4ccccc34)c(O)ccc2c1,> 100,> 100,> 100,> 100,> 100,> 100,> 100,> 100,> 100,> 100,> 100,> 100,> 100,> 100
COC(=O)CCc1ccc2c(c1)CCC2,> 100,> 100,> 100,–,–,> 100,> 100,> 100,> 100,> 100,> 100,> 100,> 100,> 100
CCOC(=O)CSc1nc2ccccc2c(=O)n1N,> 100,> 100,> 100,> 100,> 100,> 100,> 100,> 100,> 100,> 100,> 100,> 100,> 100,> 100
C[C@]12CC[C@@H]3c4ccc(OC(=O)c5ccccc5)cc4CC[C@H]3[C@@H]1CCC2OC(=O)c1cccc2c(=O)c3ccccc3[nH]c12 (stereo partly specified),30.6,30,42.6,30.4,> 100,44.9,55.8,> 100,48.3,38,24.5,> 100,68.6,29.9
CCOC(=O)c1ccc2c(c1)nc1n2C(c2c(F)cccc2F)SC1 (stereo unspecified),> 100,> 100,> 100,–,> 100,> 100,> 100,43.4,77.3,> 100,> 100,> 100,> 100,> 100
Cc1c(O)c(OC2OC(CO)C(O)C(O)C2O)cc2c1CC[C@@H]1C2(C)C(=O)C[C@]2(C)[C@@H]([C@@](C)(O)C(O)/C=C/C(C)(C)O)[C@H](O)C[C@@]12C (stereo partly specified),> 100,> 100,> 100,> 100,> 100,> 100,> 100,> 100,> 100,> 100,> 100,> 100,> 100,> 100
CC(=O)C1(c2ccccc2)CCN(Cn2sc3nc(C)cc(C)c3c2=O)CC1,93.1,72.7,> 100,58.1,> 100,> 100,57.3,> 100,41.6,> 100,> 100,> 100,31.8,> 100
O=c1c2cccnc2[nH]c2ccc3scnc3c12,> 10,> 10,> 10,> 10,–,> 10,> 10,> 10,> 10,> 10,> 10,> 10,–,> 10
COC(=O)c1cc(C)ccc1/C=C1\Cc2cc(C)c(C)cc2C1=O,> 100,> 100,> 100,> 100,> 100,> 100,69.5,> 100,> 100,> 100,> 100,> 100,> 100,–
COC(=O)c1cc(NC2OCC(OC(C)=O)C(OC(C)=O)C2OC(C)=O)nc(SC)c1C(=O)OC (stereo unspecified),> 100,> 100,> 100,> 100,–,> 100,> 100,> 100,> 100,> 100,> 100,> 100,> 100,> 100
COc1cc(-c2c[nH]c3ccccc23)nc(-c2c[nH]c3ccccc23)n1,–,13,23.9,19,17.7,30.7,17.7,19.6,–,38.4,20.3,22.1,18.1,14.9
COc1ccc(C2Oc3c(cccc3OC)C=C2[N+](=O)[O-])cc1OC (stereo unspecified),20.5,–,> 100,> 100,> 100,> 100,> 100,67.9,22.3,31,–,> 100,29.2,15.2
O=C1c2ccccc2C(=O)c2c(OCC3CO3)ccc(OCC3CO3)c21 (stereo unspecified),12,> 46.3,13.3,35.5,5.96,2.29,29.9,10.7,–,15.5,5.68,1.55,10.4,12.1
NCCCNc1ccc2c(c1)[n+]([O-])c1ccccc1[n+]2[O-],> 100,> 100,70.8,> 100,> 100,> 100,–,50.5,97.5,64,> 100,61.4,> 100,91.9
